“Also recorded” adds a separate entry of the source.
Key:
[1] = target: T1, human Sirt5 (Homo sapiens, UniProt Q9NXA8); test: HPLC-based assay, non-labelled succinyl-lysine peptide; format: biochemical; details: 200 μM, succinyl-lysine substrate
T1 construct: human Sirt5_34–302 (Uniprot: Q9NXA8); made in house
T1 sequence (Q9NXA8 34-302): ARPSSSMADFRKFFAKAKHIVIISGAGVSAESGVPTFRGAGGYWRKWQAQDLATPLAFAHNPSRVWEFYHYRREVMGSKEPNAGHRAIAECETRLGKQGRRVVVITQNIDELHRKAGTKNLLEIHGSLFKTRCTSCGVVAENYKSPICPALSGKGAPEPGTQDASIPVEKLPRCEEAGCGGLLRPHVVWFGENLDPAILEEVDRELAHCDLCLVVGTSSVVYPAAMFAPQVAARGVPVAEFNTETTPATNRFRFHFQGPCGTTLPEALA

[2] = target: T2, human Sirt1 (Homo sapiens, UniProt Q96EB6); test: HPLC-based conversion assay, non-labelled acetyl-lysine α-tubulin peptide; details: read-out: inhibition of Sirt1
T2 sequence (Q96EB6 133-747): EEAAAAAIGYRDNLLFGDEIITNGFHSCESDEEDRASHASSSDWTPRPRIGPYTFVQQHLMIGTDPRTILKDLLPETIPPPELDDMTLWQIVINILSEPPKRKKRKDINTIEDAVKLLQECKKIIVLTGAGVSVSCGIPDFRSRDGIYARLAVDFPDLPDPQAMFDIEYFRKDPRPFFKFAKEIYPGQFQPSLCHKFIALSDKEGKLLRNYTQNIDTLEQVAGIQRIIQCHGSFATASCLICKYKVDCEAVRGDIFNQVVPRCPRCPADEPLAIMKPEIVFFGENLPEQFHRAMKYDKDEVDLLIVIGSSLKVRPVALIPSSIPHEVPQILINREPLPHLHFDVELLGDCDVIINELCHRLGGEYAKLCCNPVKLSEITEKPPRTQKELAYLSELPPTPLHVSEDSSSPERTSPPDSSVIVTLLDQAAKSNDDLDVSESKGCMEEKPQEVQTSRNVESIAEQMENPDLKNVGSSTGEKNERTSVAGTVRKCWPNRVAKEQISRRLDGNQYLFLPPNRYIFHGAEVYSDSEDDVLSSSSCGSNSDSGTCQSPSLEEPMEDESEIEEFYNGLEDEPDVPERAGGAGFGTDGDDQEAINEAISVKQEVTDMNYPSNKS

[3] = system: acetylation of the microtubule network in HeLa cells; test: immunofluorescence microscopy of acetylated microtubule network; format: cell-based; details: 4 h
Source text: Cells were then stained with an anti-acetyl-α-tubulin antibody (Sigma-Aldrich, T6793) and then probed with a secondary Alexa 546 conjugated anti-mouse-antibody (Invitrogen). Nuclei were counterstained with DAPI (4',6-diamidino-2-phenylindole). Coverslips were mounted with FluoroMount (Sigma-Aldrich) and sealed with DPX Mountant (Sigma-Aldrich). Images of the mounted samples were acquired on a Leica DM500 microscope equipped with a Leica DFC 395 FX camera and HBO 100 W lamp[40]. The microscope was run with the Leica Application Suite 4.4.0 software. Chroma UV filter set (No. C40888) and Leica N2.1 filter set (No. 513832) were used for DAPI and Alexa 546 signal acquisition, respectively, with a HCX FL Fluotar 40x/0.75 (dry) objective. Further details about the equipment and the settings that were used to acquire the images are found in the Supplementary Methods section. Unprocessed images are found in Supplementary Fig. 9. […]
Immunocytochemistry equipment and settings. The signal of Alexa 546 and DAPI of the same region were acquired with constant illumination parameters as grayscale 8-bit 600 dpi tiff files (1600u 1200 pixels). Alexa 546 was acquired after 639.1 ms with a gamma factor of 0.65 without multiplying. The gain was set to 1. DAPI-stained images were acquired after about 20 ms with the same parameters as the one for Alexa 546 image acquisition. The temperature in the microscope room was kept at RT. Representative regions of each samples were processed with Adobe Photoshop CS2 to generate images in RGB mode by copying the appropriate original greyscale images to the blue (nuclei, DAPI) and the red (acetylated D-tubulin signal, Alexa 546) channel, respectively. As adjustment, a minimal background subtraction was applied on all images during processing in the same manner. The resolution was changed from 600 dpi (source images) to 450 dpi without resampling (Fig. 7 of the main article). LUT (CLUT) of grayscale images of the acetylated D-tubulin signal and of the DAPI signal are shown in Supplementary Fig. 8. […]

[4] = system: p53-Lys382-acetylation in U2OS cells; test: p53 acetylation after ultraviolet exposure, western blot; format: cell-based; details: 1 h pretreatment, 20 J cm^-2 UV, further 6 h
Experimental: U2OS cells (ATCC accession no. HTB-96) were seeded and cultured until they reached 90% confluency. […] Cells were incubated for an additional 6 h in the presence of the inhibitor and then lysed in IPLS (50 mM Tris/HCl, 150 mM NaCl; 0.5 mM EDTA; 0.5% (v/v) NP-40; 1 × Complete Protease Inhibitors (Roche), pH 8.0) and resuspended in 1 × Laemmli Buffer. Samples were then separated on SDS–PAGE, transferred to a nitrocellulose membrane (Bio-Rad), blocked with non-fat dry milk (Roth, 5% (w/v), TBS, 0.1% (v/v) Tween 20) and probed with anti-acetyl-p53 K382 (Cell Signaling, #2522), anti-p53 DO.1 (Santa Cruz Biotechnology, sc-126) and anti-vinculin (Cell Signaling, #4650) as a loading control. Uncropped blots are shown in the Supplementary Fig. 10.

Cc1cc(C)nc(SCC(=O)Nc2ncc(Cc3cccc4ccccc34)s2)n1 [SirReal2]
effect on activity of Sirt5 [1]: very little effect
inhibition at 100 µM [2]: 22%
acetylation level of the microtubule network ([3]; 20 μM): induces hyperacetylation; also recorded: partial increase; also recorded: hyperacetylation of the microtubule network
acetylation level of the microtubule network ([3]; 50 μM): induces hyperacetylation
acetylation of p53 (Lys382) after ultraviolet exposure [4]: does not affect; also recorded: did not observe an increase; also recorded: does not alter
